What all share (format): functional
The test system of test [1] is Escherichia coli. In words: Antibacterial activity against Escherichia coli DH5[alpha] at 2.5 mg/ml after 24 hrs by Kirby-Bauer single disc susceptibility test. The following applies: read-out: DIZ.
Test [2] deals with Rhodococcus rhodochrous. As to the kind of experiment: Antibacterial activity against Rhodococcus rhodochrous MTCC 265 at 5 mg/ml after 24 hrs by Kirby-Bauer single disc susceptibility test. The note with it: MTCC 265, 24 h, read-out: DIZ.
The test system of test [3] is Escherichia coli. As to the kind of experiment: Antibacterial activity against Escherichia coli DH5[alpha] at 5 mg/ml after 24 hrs by Kirby-Bauer single disc susceptibility test. The note with it: read-out: DIZ.
For test [4], the system named is Rhodococcus rhodochrous. In words: Antibacterial activity against Rhodococcus rhodochrous MTCC 265 at 2.5 mg/ml after 24 hrs by Kirby-Bauer single disc susceptibility test. The following applies: MTCC 265, 24 h, read-out: DIZ.

For `Cn1c(O)c(C(=O)/C=C/c2ccc(OCc3cn(-c4ccc(Cl)cc4)nn3)cc2)c(=O)n(C)c1=O`, the zone of inhibition at 2500 µg/mL in the test on Escherichia coli [1] and in the test on Rhodococcus rhodochrous [4] was 0 mm each time. Further, the zone of inhibition at 5000 µg/mL in the test on Rhodococcus rhodochrous [2] and with Escherichia coli [3] was 0 mm each time.
As for `Cc1cccc(-n2cc(COc3ccc(/C=C/C(=O)c4c(O)n(C)c(=O)n(C)c4=O)cc3)nn2)c1`, the zone of inhibition at 2500 µg/mL worked out at 2 mm in the test with Escherichia coli [1] and 3 mm with Rhodococcus rhodochrous [4]. Further, the zone of inhibition at 5000 µg/mL in the test on Rhodococcus rhodochrous [2] and with Escherichia coli [3] was 2 mm each time.
For the molecule `Cn1c(O)c(C(=O)/C=C/c2ccc(OCc3cn(Cc4ccccc4)nn3)cc2)c(=O)n(C)c1=O`, the zone of inhibition at 2500 µg/mL in the test with Escherichia coli [1] was determined as 0 mm; in the test with Rhodococcus rhodochrous [4] it was 2 mm. Moreover, the zone of inhibition at 5000 µg/mL in the test on Rhodococcus rhodochrous [2] was 2 mm; in the test on Escherichia coli [3] it was 0 mm.
As for `Cn1c(O)c(C(=O)/C=C/c2ccc(OCc3cn(-c4ccccc4)nn3)cc2)c(=O)n(C)c1=O`, the zone of inhibition at 2500 µg/mL with Escherichia coli [1] and in the test on Rhodococcus rhodochrous [4] was 4 mm each time. Further, the zone of inhibition at 5000 µg/mL in the test with Rhodococcus rhodochrous [2] and in the test with Escherichia coli [3] was 3 mm throughout.
For `COc1ccc(-n2cc(COc3ccc(/C=C/C(=O)c4c(O)n(C)c(=O)n(C)c4=O)cc3)nn2)cc1`, the zone of inhibition at 2500 µg/mL in the test on Escherichia coli [1] came to 0 mm; with Rhodococcus rhodochrous [4], 2 mm. In addition, the zone of inhibition at 5000 µg/mL in the test with Rhodococcus rhodochrous [2] was found to be 2 mm; in the test with Escherichia coli [3], 0 mm.
With `COc1cccc(-n2cc(COc3ccc(/C=C/C(=O)c4c(O)n(C)c(=O)n(C)c4=O)cc3)nn2)c1`, the zone of inhibition at 2500 µg/mL in the test on Escherichia coli [1] and in the test on Rhodococcus rhodochrous [4] was 3 mm in each case. In addition, the zone of inhibition at 5000 µg/mL is 2 mm with Rhodococcus rhodochrous [2] and 3.5 mm with Escherichia coli [3].
Consider `Cn1c(O)c(C(=O)/C=C/c2ccc(OCc3cn(-c4ccc(Br)cc4)nn3)cc2)c(=O)n(C)c1=O`, for which the results for the zone of inhibition at 2500 µg/mL with Escherichia coli [1] and in the test on Rhodococcus rhodochrous [4] were 0 mm and 3 mm, respectively. In addition, the results for the zone of inhibition at 5000 µg/mL in the test on Rhodococcus rhodochrous [2] and in the test with Escherichia coli [3] were 2 mm and 0 mm, respectively.
With `Cn1c(O)c(C(=O)/C=C/c2ccc(OCc3cn(-c4ccc(F)cc4)nn3)cc2)c(=O)n(C)c1=O`, the zone of inhibition at 2500 µg/mL in the test with Escherichia coli [1] and in the test on Rhodococcus rhodochrous [4] was 0 mm throughout. In addition, the zone of inhibition at 5000 µg/mL in the test with Rhodococcus rhodochrous [2] and in the test with Escherichia coli [3] was 0 mm in each case.

The record behind these values is ChEMBL document CHEMBL3046713, “Synthesis and antimicrobial activity of pyrimidine chalcones” (2013).
